Laboratory results: paper PMC3639963, “A New Class of Small Molecule Inhibitor of BMP Signaling” (PLoS ONE, 2013)

Columns and labels:
Test in all cases: Nanosyn kinase profiling
Type in all cases: biochemical
Conditions in all cases: read-out: Percentage inhibition; for inhibition at 0.1 µM: 0.1 µM inhibitor; for inhibition at 1 µM: 1 µM inhibitor
DCAMKL2 = biological target: T1, DCAMKL2 (Homo sapiens, UniProt Q8N568)
T1 construct: purchased Nanosyn (enzymatic panel); SGC in-house recombinant human kinases (DSF panel); Invitrogen (ALK1-6)
T1 sequence (Q8N568 1-766): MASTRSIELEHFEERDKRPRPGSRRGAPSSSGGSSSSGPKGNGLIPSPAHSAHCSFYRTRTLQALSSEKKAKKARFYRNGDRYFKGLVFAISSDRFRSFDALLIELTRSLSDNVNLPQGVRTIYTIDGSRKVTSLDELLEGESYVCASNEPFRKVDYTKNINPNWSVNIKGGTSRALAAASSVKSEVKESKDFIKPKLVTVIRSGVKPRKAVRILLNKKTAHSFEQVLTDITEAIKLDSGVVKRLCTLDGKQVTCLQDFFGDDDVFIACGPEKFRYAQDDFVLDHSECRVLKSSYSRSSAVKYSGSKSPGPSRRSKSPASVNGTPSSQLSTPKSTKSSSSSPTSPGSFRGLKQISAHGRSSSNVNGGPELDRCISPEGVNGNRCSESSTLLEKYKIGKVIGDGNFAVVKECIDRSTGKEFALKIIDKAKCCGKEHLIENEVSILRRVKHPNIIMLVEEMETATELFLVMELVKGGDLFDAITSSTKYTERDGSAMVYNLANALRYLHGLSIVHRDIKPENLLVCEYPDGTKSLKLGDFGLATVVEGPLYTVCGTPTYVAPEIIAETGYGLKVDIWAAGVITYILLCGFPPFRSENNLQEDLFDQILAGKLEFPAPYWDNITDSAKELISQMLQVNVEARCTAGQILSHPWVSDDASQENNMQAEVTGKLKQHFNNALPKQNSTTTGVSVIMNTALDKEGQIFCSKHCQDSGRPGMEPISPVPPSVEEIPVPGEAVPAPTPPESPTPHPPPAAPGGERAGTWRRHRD
Description: (§1) Percentage inhibition was determined for each kinase at both 0.1 µM and 1 µM inhibitor concentration (supplemental Table S2). […]. […]. When visualized on a kinase phylogenetic tree, these were primarily clustered within the receptor tyrosine kinases (TKs) as well as the calmodulin-dependent kinases (CAMKs) (Figure 2C).
(§2) Inhibitor selectivity profiling against 200 human kinases at 0.1 and 1 µM inhibitor concentration was performed by Nanosyn (www.nanosyn.com).

TNK1 = biological target: T2, TNK1 (Homo sapiens, UniProt Q13470)
T2 construct: purchased Nanosyn (enzymatic panel); SGC in-house recombinant human kinases (DSF panel); Invitrogen (ALK1-6)
T2 sequence (Q13470 1-666): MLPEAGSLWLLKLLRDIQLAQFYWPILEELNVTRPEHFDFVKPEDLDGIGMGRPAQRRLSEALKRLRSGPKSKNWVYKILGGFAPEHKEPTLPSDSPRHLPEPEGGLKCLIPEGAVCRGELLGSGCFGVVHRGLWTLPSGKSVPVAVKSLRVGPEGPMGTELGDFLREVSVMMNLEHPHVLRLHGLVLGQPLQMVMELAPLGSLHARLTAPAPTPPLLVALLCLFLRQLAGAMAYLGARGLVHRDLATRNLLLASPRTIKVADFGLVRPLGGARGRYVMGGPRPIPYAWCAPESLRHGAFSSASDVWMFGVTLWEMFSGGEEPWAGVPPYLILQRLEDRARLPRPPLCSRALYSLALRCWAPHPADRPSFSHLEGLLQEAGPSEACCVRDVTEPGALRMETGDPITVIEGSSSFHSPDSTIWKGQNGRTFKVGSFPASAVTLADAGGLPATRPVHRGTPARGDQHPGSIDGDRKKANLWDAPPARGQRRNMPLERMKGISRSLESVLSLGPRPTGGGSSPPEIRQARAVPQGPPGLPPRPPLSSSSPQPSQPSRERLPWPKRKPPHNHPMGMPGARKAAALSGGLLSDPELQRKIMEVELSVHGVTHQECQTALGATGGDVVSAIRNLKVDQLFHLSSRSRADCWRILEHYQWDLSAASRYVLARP
Description: as §1, §2

RSK2 = biological target: T3, RSK2 (Homo sapiens, UniProt P51812)
T3 construct: purchased Nanosyn (enzymatic panel); SGC in-house recombinant human kinases (DSF panel); Invitrogen (ALK1-6)
T3 sequence (P51812 whole entry): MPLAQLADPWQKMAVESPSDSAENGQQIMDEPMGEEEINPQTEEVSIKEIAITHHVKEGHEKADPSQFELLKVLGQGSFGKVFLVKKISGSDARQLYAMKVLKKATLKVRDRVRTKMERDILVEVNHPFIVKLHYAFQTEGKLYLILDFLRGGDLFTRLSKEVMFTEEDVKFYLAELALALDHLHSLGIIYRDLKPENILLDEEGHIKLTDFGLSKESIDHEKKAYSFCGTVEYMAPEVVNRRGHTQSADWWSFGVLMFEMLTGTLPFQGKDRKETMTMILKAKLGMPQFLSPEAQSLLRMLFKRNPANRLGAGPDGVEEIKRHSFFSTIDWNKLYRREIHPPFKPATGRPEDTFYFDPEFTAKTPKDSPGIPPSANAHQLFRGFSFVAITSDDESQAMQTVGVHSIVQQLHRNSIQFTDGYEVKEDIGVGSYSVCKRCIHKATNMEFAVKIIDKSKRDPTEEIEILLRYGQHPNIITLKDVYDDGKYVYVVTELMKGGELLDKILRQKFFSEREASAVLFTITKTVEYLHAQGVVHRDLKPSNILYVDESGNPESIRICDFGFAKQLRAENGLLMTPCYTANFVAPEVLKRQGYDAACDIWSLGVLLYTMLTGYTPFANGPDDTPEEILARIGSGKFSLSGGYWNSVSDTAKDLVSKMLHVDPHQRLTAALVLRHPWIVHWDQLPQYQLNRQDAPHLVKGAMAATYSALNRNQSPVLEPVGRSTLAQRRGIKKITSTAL
Description: as §1, §2

SRPK1 = biological target: T4, SRPK1 (Homo sapiens, UniProt Q96SB4)
T4 construct: purchased Nanosyn (enzymatic panel); SGC in-house recombinant human kinases (DSF panel); Invitrogen (ALK1-6)
T4 sequence (Q96SB4 whole entry): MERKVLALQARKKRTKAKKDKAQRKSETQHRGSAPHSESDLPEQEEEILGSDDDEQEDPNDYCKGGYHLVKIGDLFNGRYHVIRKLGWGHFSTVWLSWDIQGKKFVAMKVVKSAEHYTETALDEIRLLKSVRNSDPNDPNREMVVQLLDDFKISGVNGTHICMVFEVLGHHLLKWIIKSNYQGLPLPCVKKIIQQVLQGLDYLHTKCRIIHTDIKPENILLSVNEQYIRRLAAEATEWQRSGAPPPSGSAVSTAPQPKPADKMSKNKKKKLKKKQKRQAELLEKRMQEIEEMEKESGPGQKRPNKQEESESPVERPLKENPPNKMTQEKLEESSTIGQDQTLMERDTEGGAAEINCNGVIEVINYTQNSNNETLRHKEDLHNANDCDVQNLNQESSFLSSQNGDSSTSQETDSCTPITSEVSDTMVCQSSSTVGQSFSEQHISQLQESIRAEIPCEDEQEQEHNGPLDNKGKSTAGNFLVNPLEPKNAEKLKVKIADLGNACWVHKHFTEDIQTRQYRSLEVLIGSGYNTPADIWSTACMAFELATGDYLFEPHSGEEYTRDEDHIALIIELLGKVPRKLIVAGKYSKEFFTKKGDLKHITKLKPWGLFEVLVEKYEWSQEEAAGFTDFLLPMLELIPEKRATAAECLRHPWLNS
Description: as §1, §2

PHKγ1 = biological target: T5, PHKγ1 (Homo sapiens, UniProt Q16816)
T5 construct: purchased Nanosyn (enzymatic panel); SGC in-house recombinant human kinases (DSF panel); Invitrogen (ALK1-6)
Description: as §1, §2

TYK2 = biological target: T6, TYK2 (Homo sapiens, UniProt P29597)
T6 construct: purchased Nanosyn (enzymatic panel); SGC in-house recombinant human kinases (DSF panel); Invitrogen (ALK1-6)
Description: as §1, §2

PKCγ = biological target: T7, PKCγ (Homo sapiens, UniProt P05129)
T7 construct: purchased Nanosyn (enzymatic panel); SGC in-house recombinant human kinases (DSF panel); Invitrogen (ALK1-6)
Description: as §1, §2

AMPKα1 = biological target: T8, AMPKα1 (Homo sapiens, UniProt Q13131)
T8 construct: purchased Nanosyn (enzymatic panel); SGC in-house recombinant human kinases (DSF panel); Invitrogen (ALK1-6)
T8 sequence (Q13131 whole entry): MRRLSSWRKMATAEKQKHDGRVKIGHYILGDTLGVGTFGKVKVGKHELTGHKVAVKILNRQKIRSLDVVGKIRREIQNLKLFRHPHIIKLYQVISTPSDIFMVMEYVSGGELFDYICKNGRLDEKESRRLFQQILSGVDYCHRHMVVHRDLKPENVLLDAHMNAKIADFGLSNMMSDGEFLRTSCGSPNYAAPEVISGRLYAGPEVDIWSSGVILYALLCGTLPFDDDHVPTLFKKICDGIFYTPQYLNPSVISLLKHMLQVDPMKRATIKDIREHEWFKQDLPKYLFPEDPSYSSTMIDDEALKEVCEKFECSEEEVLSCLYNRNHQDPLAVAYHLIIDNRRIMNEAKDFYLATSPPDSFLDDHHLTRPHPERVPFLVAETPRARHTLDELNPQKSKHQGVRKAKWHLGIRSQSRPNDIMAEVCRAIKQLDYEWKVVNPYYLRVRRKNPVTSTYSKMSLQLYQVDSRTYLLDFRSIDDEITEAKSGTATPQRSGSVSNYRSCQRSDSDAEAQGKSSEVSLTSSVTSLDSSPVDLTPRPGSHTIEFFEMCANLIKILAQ
T8 sequence (Q9Y478 whole entry partner): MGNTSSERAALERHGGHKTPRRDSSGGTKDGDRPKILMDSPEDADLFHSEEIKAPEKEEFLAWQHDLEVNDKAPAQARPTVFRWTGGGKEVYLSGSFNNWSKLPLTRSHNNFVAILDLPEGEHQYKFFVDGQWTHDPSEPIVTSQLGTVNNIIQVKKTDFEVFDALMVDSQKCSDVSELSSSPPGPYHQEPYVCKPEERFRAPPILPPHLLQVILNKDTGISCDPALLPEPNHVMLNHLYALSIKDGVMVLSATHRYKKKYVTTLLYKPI
T8 sequence (P54619 whole entry partner): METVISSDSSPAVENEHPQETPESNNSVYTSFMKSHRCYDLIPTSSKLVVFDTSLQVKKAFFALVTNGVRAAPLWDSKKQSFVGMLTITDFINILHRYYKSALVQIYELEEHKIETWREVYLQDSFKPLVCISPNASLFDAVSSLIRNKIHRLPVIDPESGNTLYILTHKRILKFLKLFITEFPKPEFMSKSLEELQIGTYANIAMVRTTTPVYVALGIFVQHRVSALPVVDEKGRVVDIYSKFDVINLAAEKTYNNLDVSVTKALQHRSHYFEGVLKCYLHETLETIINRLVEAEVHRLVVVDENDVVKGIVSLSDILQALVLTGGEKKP
Description: as §1, §2

CDK3/cycE = biological target: T9, CDK3/cycE (Homo sapiens, UniProt Q00526)
T9 construct: purchased Nanosyn (enzymatic panel); SGC in-house recombinant human kinases (DSF panel); Invitrogen (ALK1-6)
T9 sequence (Q00526 whole entry): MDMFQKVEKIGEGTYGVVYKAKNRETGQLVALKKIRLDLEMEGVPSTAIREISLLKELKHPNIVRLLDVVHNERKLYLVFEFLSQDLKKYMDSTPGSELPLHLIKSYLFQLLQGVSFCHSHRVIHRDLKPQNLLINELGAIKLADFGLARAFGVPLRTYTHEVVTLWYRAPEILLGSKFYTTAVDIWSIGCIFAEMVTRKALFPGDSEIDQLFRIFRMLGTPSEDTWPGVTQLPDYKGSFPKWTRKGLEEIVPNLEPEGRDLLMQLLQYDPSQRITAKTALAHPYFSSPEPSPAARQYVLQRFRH
T9 sequence (P24864 whole entry partner): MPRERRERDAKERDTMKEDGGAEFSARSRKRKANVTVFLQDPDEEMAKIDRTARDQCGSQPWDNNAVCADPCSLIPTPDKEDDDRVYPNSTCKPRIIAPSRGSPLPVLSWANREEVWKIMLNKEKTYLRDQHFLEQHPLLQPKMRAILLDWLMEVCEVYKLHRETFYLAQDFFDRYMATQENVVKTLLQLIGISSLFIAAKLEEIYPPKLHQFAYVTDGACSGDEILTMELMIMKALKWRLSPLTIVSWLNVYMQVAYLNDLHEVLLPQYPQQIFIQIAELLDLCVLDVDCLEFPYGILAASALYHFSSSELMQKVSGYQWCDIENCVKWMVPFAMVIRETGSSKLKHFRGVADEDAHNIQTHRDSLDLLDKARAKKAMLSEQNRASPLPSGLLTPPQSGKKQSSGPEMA
Description: as §1, §2

TRKB = biological target: T10, TRKB (Homo sapiens, UniProt Q16620)
T10 construct: purchased Nanosyn (enzymatic panel); SGC in-house recombinant human kinases (DSF panel); Invitrogen (ALK1-6)
T10 sequence (Q16620 32-822): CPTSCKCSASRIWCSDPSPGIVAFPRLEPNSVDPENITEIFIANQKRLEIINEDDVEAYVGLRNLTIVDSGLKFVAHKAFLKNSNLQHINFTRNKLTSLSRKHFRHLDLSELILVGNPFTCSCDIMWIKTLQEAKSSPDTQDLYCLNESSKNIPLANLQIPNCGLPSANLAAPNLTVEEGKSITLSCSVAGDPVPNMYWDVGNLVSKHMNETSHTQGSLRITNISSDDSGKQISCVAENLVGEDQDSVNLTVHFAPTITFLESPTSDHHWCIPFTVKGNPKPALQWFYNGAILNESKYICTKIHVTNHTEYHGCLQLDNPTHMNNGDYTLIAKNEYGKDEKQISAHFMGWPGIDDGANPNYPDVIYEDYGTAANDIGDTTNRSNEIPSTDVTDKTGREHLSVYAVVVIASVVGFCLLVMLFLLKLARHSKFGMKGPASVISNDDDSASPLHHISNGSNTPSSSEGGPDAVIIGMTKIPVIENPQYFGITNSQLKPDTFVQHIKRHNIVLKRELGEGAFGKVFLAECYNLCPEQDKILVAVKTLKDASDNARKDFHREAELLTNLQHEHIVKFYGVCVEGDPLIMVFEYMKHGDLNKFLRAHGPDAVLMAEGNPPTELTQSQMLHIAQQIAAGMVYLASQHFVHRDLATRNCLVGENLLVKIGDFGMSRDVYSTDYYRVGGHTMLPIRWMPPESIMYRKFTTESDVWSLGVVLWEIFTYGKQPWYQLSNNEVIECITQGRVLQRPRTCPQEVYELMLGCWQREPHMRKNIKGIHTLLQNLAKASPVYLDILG
Description: as §1, §2

PDK1 = biological target: T11, PDK1 (Homo sapiens, UniProt O15530)
T11 construct: purchased Nanosyn (enzymatic panel); SGC in-house recombinant human kinases (DSF panel); Invitrogen (ALK1-6)
T11 sequence (O15530 1-556): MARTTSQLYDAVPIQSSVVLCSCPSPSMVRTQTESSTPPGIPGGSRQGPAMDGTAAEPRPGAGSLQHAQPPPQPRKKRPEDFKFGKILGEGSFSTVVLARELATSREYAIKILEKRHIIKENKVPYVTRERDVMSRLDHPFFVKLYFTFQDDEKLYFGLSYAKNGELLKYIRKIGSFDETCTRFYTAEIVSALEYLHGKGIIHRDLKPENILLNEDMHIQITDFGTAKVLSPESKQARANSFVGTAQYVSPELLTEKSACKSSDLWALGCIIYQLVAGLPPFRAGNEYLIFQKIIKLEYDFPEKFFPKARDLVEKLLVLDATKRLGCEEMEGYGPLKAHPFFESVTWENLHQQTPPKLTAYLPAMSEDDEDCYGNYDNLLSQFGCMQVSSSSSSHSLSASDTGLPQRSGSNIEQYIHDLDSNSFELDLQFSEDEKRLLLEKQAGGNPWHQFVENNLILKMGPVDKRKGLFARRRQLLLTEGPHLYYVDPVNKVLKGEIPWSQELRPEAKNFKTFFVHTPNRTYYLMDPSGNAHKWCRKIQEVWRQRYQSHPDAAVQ
Description: as §1, §2

| Structure (SMILES) | inhibition at 0.1 µM (DCAMKL2) [%] | inhibition at 1 µM (DCAMKL2) [%] | inhibition at 0.1 µM (TNK1) [%] | inhibition at 1 µM (TNK1) [%] | inhibition at 0.1 µM (RSK2) [%] | inhibition at 1 µM (RSK2) [%] | inhibition at 0.1 µM (SRPK1) [%] | inhibition at 1 µM (SRPK1) [%] | inhibition at 0.1 µM (PHKγ1) [%] | inhibition at 1 µM (PHKγ1) [%] | inhibition at 0.1 µM (TYK2) [%] | inhibition at 1 µM (TYK2) [%] | inhibition at 0.1 µM (PKCγ) [%] | inhibition at 1 µM (PKCγ) [%] | inhibition at 0.1 µM (AMPKα1) [%] | inhibition at 1 µM (AMPKα1) [%] | inhibition at 0.1 µM (CDK3/cycE) [%] | inhibition at 1 µM (CDK3/cycE) [%] | inhibition at 0.1 µM (TRKB) [%] | inhibition at 1 µM (TRKB) [%] | also measured |
| --- | --- | --- | --- | --- | --- | --- | --- | --- | --- | --- | --- | --- | --- | --- | --- | --- | --- | --- | --- | --- | --- |
| COc1cc(-c2cc(-c3cccc(O)c3)cnc2N)cc(OC)c1OC [K02288, 3-[6-amino-5-(3,4,5-trimethoxy-phenyl)-pyridin-3-yl]-phenol] | -2 | 2.3 | 0.4 | 10 | 0.8 | 2.2 | 3.2 | 2.7 | 1.8 | 4.4 | 0 | 1.8 | -4 | -1 | -1 | 0 | 1.6 | -91 | 1.8 | 3.9 | inhibition at 0.1 µM (PDK1): 0%; inhibition at 1 µM (PDK1): 0.5% |
| c1ccc2c(-c3cnn4cc(-c5ccc(N6CCNCC6)cc5)cnc34)ccnc2c1 [LDN-193189] | 0.8 | 3.4 | 18 | 63 | 1.2 | 5.4 | -1 | -2 | 5.2 | 27 | -1 | -2 | 2.1 | 4.1 | 5.2 | 23 | 1.6 | 7 | 0.8 | 3 | inhibition at 0.1 µM (PDK1): 1.1%; inhibition at 1 µM (PDK1): 1.9% |
